The values that follow come from patent publication US20220226382A1, “Nutritional Composition” (MORINAGA MILK INDUSTRY CO., LTD., priority 2019, published 2022).

The experiment deals with simian rotavirus SA11 strain. In words: Plaque assay: antiviral action against simian rotavirus in MA104 cells (infection-suppressing ratio). As to conditions: human milk oligosaccharide alone, n=3. It is filed as cell-based. How it is done: The simian rotavirus SA11 strain (Nihon Bioresearch Inc.) was inoculated to the MA104 cells (Sigma-Aldrich) of African green monkey kidney maintained in a minimum essential medium (Sigma-Aldrich, henceforth referred to simply as “medium”). The simian rotavirus SA11 strain, for example, can be obtained from American Type Culture Collection (ATCC) as ATCC VR-1565. To the medium, lactoferrin (LF) and/or the human milk oligosaccharide(s) shown below were added beforehand alone or in combination at the following concentrations, respectively (n=3).
LF (produced by Morinaga Milk Industry Co., Ltd.): 0, 0.1 or 1.0 mg/mL
2′-Fucosyllactose (2′-FL, Funakoshi Co., Ltd.): 0, 0.1, 0.5, or 2.5 mg/mL
3-Fucosyllactose (3-FL, Funakoshi Co., Ltd.): 0, 0.1, or 0.5 mg/mL
3′-Sialyllactose (3′-SL, Funakoshi Co., Ltd.): 0, 0.1, or 0.5 mg/mL
6′-Sialyllactose (6′-SL, Funakoshi Co., Ltd.): 0, 0.1, or 0.5 mg/mL
Human milk oligosaccharides (mixture) (HMO mix, mixture of 2′-FL (2.5 mg/mL), 3-FL (0.5 mg/mL), 3′-SL (0.25 mg/mL) and 6′-SL (0.5 mg/mL))
The amount of 1.0 mg/mL corresponds to 0.1 mass % in mass percentage.
Degree of infection was evaluated based on the number of “plaques” formed when the cells were infected with the virus. Specifically, the antiviral effects of lactoferrin and human milk oligosaccharides were evaluated based on “plaque-suppressing ratio (%)”, i.e., the ratio of “plaque counts observed with lactoferrin and/or human milk oligosaccharide(s) supplementation” to “plaque counts observed without these supplementation”. Plaque-suppressing ratio was then regarded as “infection-suppressing ratio (%)”.

As to 2′-Fucosyllactose [2′-FL], where the note is “0.1 mg/mL”, the infection-suppressing ratio stood at 1.2%.

In the case of 3-Fucosyllactose [3-FL], the infection-suppressing ratio runs as follows: (0.1 mg/mL) 6.6%; (0.5 mg/mL) 21%.

As for `CC(=O)N[C@H]1[C@H]([C@H](O)[C@H](O)CO)O[C@@](O[C@H]2[C@@H](O)[C@@H](CO)O[C@@H](O[C@H]3[C@H](O)[C@@H](O)C(O)O[C@@H]3CO)[C@@H]2O)(C(=O)O)C[C@@H]1O` (stereo partly drawn) [3′-SL, 3′-Sialyllactose], the infection-suppressing ratio (0.5 mg/mL) stood at 33%.

For `CC(=O)N[C@H]1[C@H]([C@H](O)[C@H](O)CO)O[C@@](OC[C@H]2O[C@@H](O[C@H]3[C@H](O)[C@@H](O)[C@H](O)O[C@@H]3CO)[C@H](O)[C@@H](O)[C@H]2O)(C(=O)O)C[C@@H]1O` [6′-SL, 6′-Sialyllactose], the infection-suppressing ratio by setting is: (0.1 mg/mL) 4.5%; (0.5 mg/mL) 23%.
